Tests used:
[1] = Phase IIb placebo-controlled dose-finding study in patients with Chronic Idiopathic Constipation: adverse events; format: in vivo, human; conditions: 56 days treatment
Protocol: A Phase IIb, Double-blind, Randomized, Placebo-controlled, Multi-centre, Dose-finding, Efficacy and Safety Study of a Range of Doses of the compound of Example 14 in about 200 patients with Chronic Idiopathic Constipation, where patients were treated for 56 days, was performed. The patients were males or non-pregnant females ≥20 years of age and ≤80 years of age, having a body mass index (BMI) ≥18.5 but <35.
All patients with adverse events of diarrhea and abdominal pain type related to treatment with the compound of Example 14 are presented in table 2.

[2] = as above; format: in vivo, human; conditions: Example 14 plus colonic delivery of 400 mg colesevelam 3 times a day

CCCCC1(CCCC)CN(c2ccccc2)c2cc(SC)c(OCC(=O)N[C@@H](C(=O)NCC(=O)O)c3ccccc3)cc2S(=O)(=O)C1 [Example 14, 1,1-Dioxo-3,3-dibutyl-5-phenyl-7-methylthio-8-(N—{(R)-1′-phenyl-1′-[N′-(carboxymethyl)-carbamoyl]methyl}carbamoylmethoxy)-2,3,4,5-tetrahydro-1,5-benzothiazepine]
Abdominal Pain, % of Population ([1]; 5 mg): 10.4 % of Population
Abdominal Pain, Number of Patients ([1]; 5 mg): 5
Diarrhoea, % of Population ([1]; 5 mg): 8.3 % of Population
Diarrhoea, Number of Patients ([1]; 5 mg): 4
Abdominal Pain, % of Population ([1]; 10 mg): 10.6 % of Population
Abdominal Pain, Number of Patients ([1]; 10 mg): 5
Diarrhoea, % of Population ([1]; 10 mg): 10.6 % of Population
Diarrhoea, Number of Patients ([1]; 10 mg): 5
Abdominal Pain, % of Population ([1]; 15 mg): 27.1 % of Population
Abdominal Pain, Number of Patients ([1]; 15 mg): 13
Diarrhoea, % of Population ([1]; 15 mg): 16.7 % of Population
Diarrhoea, Number of Patients ([1]; 15 mg): 8
bile acid dependent side effects generated from colon (diarrhoea, abdominal pain) [2]: effectively block bile acid side effects generated from the colon

Source: patent publication US20250387449A1, “PHARMACEUTICAL COMBINATION COMPRISING AN IBAT INHIBITOR AND A BILE ACID BINDER” (Albireo AB, priority 2010, published 2025)
